Assay [1] has as its system Human alphaherpesvirus 3. The assay is described as follows: Antiviral activity against Varicella-Zoster virus (thymidine kinase deficient) TK-(07/1). The format is functional, organism-based.
Assay [2] has as its system HEL (human embryonic lung). Put plainly: Cytotoxic concentration required to inhibit Hel cell growth.
Assay [3] relates to HEL (human embryonic lung). Put plainly: Minimal cytotoxic concentration, required to alter microscopically detectable cell morphology.
Assay [4] has as its system Human alphaherpesvirus 3. The assay is described as follows: Antiviral activity against Varicella-Zoster virus (YS). In kind it is functional, organism-based.
In assay [5] the test system is Human alphaherpesvirus 3. The assay is described as follows: Antiviral activity against Varicella-Zoster virus (OKA). The format is functional, organism-based.

Regarding `CCCCCCCc1ccc(-c2cc3cn([C@H]4C[C@H](O)[C@@H](CO)O4)c(=O)nc3s2)cc1`, the EC50 is greater than 20000 nM in the assay on Human alphaherpesvirus 3 [1], 180 nM in the assay on Human alphaherpesvirus 3 [4] and 270 nM with Human alphaherpesvirus 3 [5]. The CC50 in assay [2] was greater than 200000 nM. The molecule also gave an MCC in assay [3] of 50 µM.

On to `CCc1ccc(-c2cc3cn([C@H]4C[C@H](O)[C@@H](CO)O4)c(=O)nc3s2)cc1`, for which the half-maximal effective concentration (EC50) with Human alphaherpesvirus 3 [1] was 20000 nM; with Human alphaherpesvirus 3 [4], 150 nM; in the assay on Human alphaherpesvirus 3 [5], 200 nM. The molecule further gave a CC50 in assay [2] greater than 200000 nM. Also, the MCC in assay [3] was greater than 200 µM.

For `CCCc1ccc(-c2cc3cn([C@H]4C[C@H](O)[C@@H](CO)O4)c(=O)nc3s2)cc1`, the EC50 in the assay on Human alphaherpesvirus 3 [1] is greater than 16000 nM; with Human alphaherpesvirus 3 [4], 60 nM; with Human alphaherpesvirus 3 [5], 90 nM. In assay [2], the 50% cytotoxic concentration (CC50) is greater than 200000 nM. The same molecule came in with an MCC in assay [3] of 80 µM.

As for `CCCCCc1ccc(-c2cc3cn([C@H]4C[C@H](O)[C@@H](CO)O4)c(=O)nc3s2)cc1`, the values for the EC50 with Human alphaherpesvirus 3 [1], with Human alphaherpesvirus 3 [4] and in the assay on Human alphaherpesvirus 3 [5] were 20000 nM, 14 nM and 25 nM, respectively. Further, the CC50 in assay [2] was greater than 200000 nM. Further, the MCC in assay [3] is 50 µM.

`CCCCCCCCc1ccc(-c2cc3cn([C@H]4C[C@H](O)[C@@H](CO)O4)c(=O)nc3s2)cc1`: the values for the EC50 in the assay on Human alphaherpesvirus 3 [1] and with Human alphaherpesvirus 3 [4] were greater than 20000 nM and 3400 nM, respectively. In addition, in assay [2], the 50% cytotoxic concentration (CC50) was greater than 200000 nM. Besides, in assay [3], the MCC was no less than 20 µM.

As to `CCCCCCCCc1cc2cn([C@H]3C[C@H](O)[C@@H](CO)O3)c(=O)nc2s1`, the figures for the EC50 in the assay on Human alphaherpesvirus 3 [1], in the assay with Human alphaherpesvirus 3 [4] and with Human alphaherpesvirus 3 [5] were greater than 5000 nM, 5 nM and 2 nM, respectively. The same molecule yielded a 50% cytotoxic concentration (CC50) in assay [2] of 53000 nM. The molecule also had an MCC in assay [3] of 20 µM.

For the molecule `CCCCCCc1ccc(-c2cc3cn([C@H]4C[C@H](O)[C@@H](CO)O4)c(=O)nc3s2)cc1`, the EC50 was greater than 50000 nM with Human alphaherpesvirus 3 [1], 43 nM with Human alphaherpesvirus 3 [4] and 80 nM with Human alphaherpesvirus 3 [5]. In assay [2], the CC50 was greater than 200000 nM. Besides, in assay [3], the MCC was 200 µM.

Consider `CCCCc1ccc(-c2cc3cn([C@H]4C[C@H](O)[C@@H](CO)O4)c(=O)nc3s2)cc1`, for which the EC50 in the assay on Human alphaherpesvirus 3 [1] is greater than 3200 nM; in the assay on Human alphaherpesvirus 3 [4], 20 nM; with Human alphaherpesvirus 3 [5], 28 nM. This molecule also came in with a CC50 in assay [2] greater than 200000 nM. This molecule also returned an MCC in assay [3] of 50 µM.

Take `Nc1nc2c(ncn2COCCO)c(=O)[nH]1` [ACYCLOVIR]: the figures for the EC50 with Human alphaherpesvirus 3 [1] and with Human alphaherpesvirus 3 [5] were 40000 nM and 1100 nM, respectively. For the same molecule, the CC50 in assay [2] was greater than 400000 nM. Further, in assay [3], the MCC was greater than 200 µM.

A word on the EC50: it is the midpoint of the concentration-response curve. As usually defined, the CC50 is the concentration at which the toxic effect on the cells reaches its halfway point. High values mean better tolerance by the cells, low ones harm at low concentration.

Values taken from ChEMBL document CHEMBL1146720, “Bicyclic anti-VZV nucleosides: thieno analogues bearing an alkylphenyl side chain have reduced antiviral activity” (Bioorg Med Chem Lett, 2004).
